# Test results taken from publication PMC7616174, “Development of Novel 4-Arylpyridin-2-one and 6-Arylpyrimidin-4-one Positive Allosteric Modulators of the M1 Muscarinic Acetylcholine Receptor” (ChemMedChem, 2020).
# Like-named read-outs stand apart in the source and are kept apart here.
# What was measured:
# hM1 mAChR = target: T1, hM1 mAChR (Homo sapiens, UniProt P11229); test: IP1 accumulation assay (ACh concentration-response curves in absence or presence of modulator); format: cell-based; details: for αβ (functional cooperativity with ACh) / τB (intrinsic efficacy of the modulator) / log τB (logarithm of intrinsic efficacy of the modulator) / log αβ (logarithm of functional cooperativity between ACh and modulator): IP1 accumulation; for αβ (functional cooperativity with ACh) / τB (intrinsic efficacy of the modulator): antilog, in parentheses; for log τB (logarithm of intrinsic efficacy of the modulator) / log αβ (logarithm of functional cooperativity between ACh and modulator): operational model; for log αβ (logarithm of functional cooperativity between ACh and modulator): pKB constrained to binding value; for activation at 1 µM: read-out: Δbaseline [1 μM]: change in basal response in presence of M1 PAM compared to control curve; for activation at 10 µM: read-out: Δbaseline [10 μM]: change in basal response in presence of M1 PAM compared to control curve
# T1 construct: expressed in transfected cells
# T1 sequence (P11229 1-460): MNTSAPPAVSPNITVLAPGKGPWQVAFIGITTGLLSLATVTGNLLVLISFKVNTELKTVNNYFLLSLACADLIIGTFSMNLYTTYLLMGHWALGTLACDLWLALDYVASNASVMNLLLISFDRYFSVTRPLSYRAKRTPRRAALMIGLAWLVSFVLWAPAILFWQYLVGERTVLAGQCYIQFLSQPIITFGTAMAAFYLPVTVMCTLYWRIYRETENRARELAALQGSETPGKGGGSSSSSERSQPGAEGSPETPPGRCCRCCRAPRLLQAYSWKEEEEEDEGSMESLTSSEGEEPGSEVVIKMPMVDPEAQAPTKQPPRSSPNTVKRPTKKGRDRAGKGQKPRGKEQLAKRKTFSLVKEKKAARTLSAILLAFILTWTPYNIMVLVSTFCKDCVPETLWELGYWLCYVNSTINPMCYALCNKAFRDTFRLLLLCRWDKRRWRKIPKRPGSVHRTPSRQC
# M1 mAChR = target: T2, M1 mAChR (Homo sapiens, UniProt P11229); set-up: method as in PMID 24051397; details: ref 10a; cited from earlier work
# T2 construct: expressed in transfected cells; host or cells: parental FlpIn CHO cells (transient, PEI)
# T2 sequence (P11229 1-460): T1 sequence (P11229 1-460)
# in vivo = details: male, C57Bl/6 J, mouse, 10 mg/kg
# Experimental: (§1) The study was performed using 10–12 weeks old male C57Bl/6 J naïve mice in accordance with the Australian Code of Practice for the Care and Use of Animals for Scientific Purposes, with procedures approved by the Animal Ethics Committee of the Monash Institute of Pharmaceutical Sciences.
# [1] = In vivo brain and plasma exposure in mice after IP administration; details: for cbrain, total concentration, 90 min post-dose / cplasma, total concentration, 90 min post-dose / cplasma, total concentration, 20 or 45 min post-dose: range n=3; for cbrain, total concentration, 20 or 45 min post-dose / cplasma, total concentration, 20 or 45 min post-dose: 20 min (10 mg/kg) for 2, 7f, 13c, 45 min (20 mg/kg) for BQCA; for cbrain, total concentration, 20 or 45 min post-dose: range in individual mice n=3
# Experimental: as §1
# [2] = 1 μM modulator, FlpIn CHO hM1 cells, mean ± SEM, 3 experiments
# [3] = 10 μM modulator, FlpIn CHO hM1 cells, mean ± SEM, 3 experiments
# [4] = 10 mg/kg (BQCA 20 mg/kg), range n=3, in parentheses
# [5] = 20 min (10 mg/kg) for 2, 45 min (20 mg/kg) for BQCA, range n=3, in parentheses
Structure (SMILES),ΔpEC50 [1 μM]: change in ACh pEC50 in presence of M1 PAM compared to control curve (hM1 mAChR; [2]),ΔpEC50 [10 μM]: change in ACh pEC50 in presence of M1 PAM compared to control curve (hM1 mAChR; [3]),αβ (functional cooperativity with ACh) (hM1 mAChR),τB (intrinsic efficacy of the modulator) (hM1 mAChR),log τB (logarithm of intrinsic efficacy of the modulator) (hM1 mAChR),log αβ (logarithm of functional cooperativity between ACh and modulator) (hM1 mAChR),"cbrain, total concentration, 90 min post-dose ([1]; 10 mg/kg (BQCA 20 mg/kg))","cplasma, total concentration, 90 min post-dose ([1]; 10 mg/kg (BQCA 20 mg/kg))","cbrain, total concentration, 20 or 45 min post-dose [1]","cplasma, total concentration, 20 or 45 min post-dose [1]",activation at 1 µM (hM1 mAChR; [2]) [%],activation at 10 µM (hM1 mAChR; [3]) [%],also measured
"Cn1cc(-c2ccc(COc3ccccc3-c3cc(=O)n(C4CCCCC4O)cn3)cc2)cn1 (centres unmarked) [Compound 2, 3-(2-Hydroxycyclohexyl)-6-(2-((4-(1-methyl-1H-pyrazol-4-yl)benzyl)oxy)phenyl)pyrimidin-4(3H)-one]",1.52±0.14,1.28±0.42,363,6,0.78±0.02,2.56±0.07,0.0 to 0.1 µM,0.7 to 1.1 µM,0.7 to 1.2 µM,15.0 to 16.5 µM,,,"activation at 1 µM (hM1 mAChR): 55.1 ± 2.4%; activation at 10 µM (hM1 mAChR): 85.3 ± 2.4%; increase in binding cooperativity with ACh (αACh) compared to MIPS1650 (1) (M1 mAChR): fourfold increase; increase in intrinsic efficacy (τB) compared to MIPS1650 (1) (M1 mAChR): 11 fold; Kp (in vivo; brain/plasma, ip): < 0.1; Kp uu (in vivo; brain/plasma, ip): < 0.1; cbrain, unbound concentration, 90 min post-dose [1, 4]: 0.0 µM; cplasma, unbound concentration, 90 min post-dose [1, 4]: 0.0 µM; cbrain, unbound concentration, 20 or 45 min post-dose [1, 5]: 0.0 µM; cplasma, unbound concentration, 20 or 45 min post-dose [1, 5]: 0.1 µM"
"Cn1cc(-c2ccc(COc3ncccc3-c3ccn(C4CCCCC4O)c(=O)c3)cc2)cn1 (centres unmarked) [Compound 7f, 1’-(2-Hydroxycyclohexyl)-2-((4-(1-methyl-1H-pyrazol-4-yl)benzyl)oxy)-[3,4’-bipyridin]-2’(1’H)-one]",0.76±0.07,1.41±0.10,316,4,0.56±0.05,2.50±0.08,,11.1–13.7 (n.a.) μM,0.3–0.4 (n.a.) μM,31.8–40.7 (n.a.) μM,4.8 ± 1.9,20.5 ± 2.5,"concentration at 90 min (in vivo; brain, intraperitoneal): 100 nM"
"CN(C)C(=O)Cn1ccc(-c2ccccc2OCc2ccc(-c3cnn(C)c3)cc2)cc1=O [Compound 13c, N,N-Dimethyl-2-(4-(2-((4-(1-methyl-1H-pyrazol-4-yl)benzyl)oxy)phenyl)-2-oxopyridin-1(2H)-yl)acetamide]",0.73±0.08,1.33±0.17,118,3,0.45±0.03,2.07±0.08,n.q.,4.9–5.4 (n.a.) μM,n.q.,25.3–46.5 (n.a.) μM,2.1 ± 2.1,63.6 ± 2.3,
